Source: patent publication US20200275624A1, “A METHOD FOR PRODUCING BANANA PLANTS WITH TOLERANCE TO FUSARIUM OXYSPORUM CUBENSIS TR4” (RAHAN MERISTEM (1998) LTD, priority 2017, published 2020)

Tested on: banana meristems
Assay: Micropropagation of banana meristems in media comprising a cytokinin-like substance
Assay type: cell-based
Conditions: meristematic tissue propagation; compared with other cytokinin-like substances; TDZ in the range of 0.1 ppm
Excerpt: In some embodiments, during the propagation stage, and typically before exposure to the demethylating agent, the meristematic tissues are propagated, at least in one propagating cycle, in a media comprising a cytokinin-like substance. Cytokinin like substances are known in the art, and non-limiting examples, include isopentenyl adenine (2iP), kinetin (KIN), 6-Benzyladenin (BA) and 6-Benzylaminopurine (BAP), 1-phenyl-3-(1,2,3-thiadiazol-5-yl) urea (TDZ).
The presence of TDZ in the culture media is in very low amounts, typically, in the range of 0.1 ppm. This amount is sufficient to induce the desired cell division.
On the 7th cycle of propagation 0.1 ppm Thidiazuron (TDZ) was added to the medium. In cycles 20 and 21, 30 μM 5-Aza-2-Deoxycytidine (a demethylation compound) was filter sterilized and added to the medium after solidification.

Q: How did the rate of multiplication turn out when `O=C(Nc1ccccc1)Nc1cnns1` [TDZ, 1-phenyl-3-(1,2,3-thiadiazol-5-yl) urea] was run?
A: best rate of multiplication
